From patent US8093301B2, “Anti-allergic agent” (Meiji Co., Ltd., priority 2005, dated 2012)
≈ marks a conversion by molar mass, not a printed value. Where “and” joins values, the source holds several entries; their conditions need not be identical. Equal values may be shown once. Where a name gives a salt, the structure may show the parent alone. Read-outs that look alike come from different tables or passages of the source.

Key:
[1] = test system: basophil-like cells (RBL-2H3); test: β-hexosaminidase release inhibition test (degranulation of IgE-sensitised, DNP-BSA-stimulated cells); type: cell-based; conditions: for IC50: read-out: 50% β-hexosaminidase release inhibitory concentration (IC50)
Experimental: In the Examples, the degree of cell degranulation was assessed through determination of β-hexosaminidase activity. In a specific procedure, basophil-like cells (RBL-2H3, Human Science Laboratory Resource Bank) were suspended in a Dulbecco's modified Eagle's medium (DMEM, product of Gibco) containing a 10% fetal calf serum, and the suspension was incubated overnight at 37° C. in a 96-well plate (2.5×10^5 cells/mL) in the presence of 0.1 μg/mL anti-dinitrophenyl (DNP)-IgE antibody (product of SIGMA).
The thus-treated basophil-like cells (RBL-2H3) were washed with phosphate buffer (PBS) and further incubated at 37° C. for 30 minutes in the presence of each test substance (Examples 1 to 6 and Comparative Examples 1 to 3) at a predetermined concentration. The concentrations at which incubation was performed were 0.1, 0.2, 0.3, 0.4, and 0.5 μM (ACNQ); 20, 30, 40, 60, and 80 μM (DHNA); 60, 70, 80, 90, and 100 μM (2-methyl-1,4-naphthoquinone (vitamin K3)); 10, 20, 30, 40, and 50 μM (4-amino-2-methyl-1-naphthol (vitamin K5)); 10, 20, 30, 40, and 50 μM (1,4-naphthoquinone); 3, 4, 5, 6, and 7 μM (2-amino-3-chloro-1,4-naphthoquinone); 50 and 100 μM (vitamin K1); 25, 50, and 100 μM (vitamin K2); and 50 and 100 μM (1,3-naphthalenediol).
The thus-incubated basophil-like cells (RBL-2H3) were washed with PBS, and further incubated at 37° C. for one hour in the presence of 1-μg/mL DNP-BSA (product of SSL). After completion of incubation, a supernatant was recovered from each well, and the activity of β-hexosaminidase contained in each supernatant was determined. The activity of β-hexosaminidase remaining in the cells was also determined through solubilizing the remaining cells with 0.1% polyoxyethylene(10)octylphenyl ether/DMEM.
Each of the thus-obtained supernatants and cell solubilized liquids was added to a 96-well plate (50 μL/well), and 2 mM p-nitrophenyl N-acetyl-β-D-glucosaminide (product of SIGMA) serving as a substrate was added thereto (50 μL/well). After incubation at 37° C. for two hours, a suppressor (1M Tris, pH: 9.0) was added thereto (150 μL/well), and the absorbance at 415 nm was measured by means of a plate reader. For assessing degranulation, percent β-hexosaminidase release (%) was calculated through the following formula: Percent β-hexosaminidase release (%)=100×(OD415 of supernatant)/(OD415 of supernatant+OD415 of solubilized cells).
The β-hexosaminidase activity of supernatant was determined as described above. The β-hexosaminidase activity of a supernatant of basophil-like cells (RBL-2H3) incubated in the presence of each of the test substances of Examples 1 to 6 and Comparative Examples 1 to 3) was measured, whereby 50% β-hexosaminidase release inhibitory concentration (IC50) was calculated.

[2] = test system: PCA reaction; test: PCA reaction, Evans Blue leakage to ear auricles; type: in vivo; conditions: ICR mice, 100 μg/kg perorally one hour before PCA induction, compared with CMC sodium-administered group, P<0.05 t-test (FIG. 3)
Experimental: ICR mice (female, 6-week old) were preliminarily bred and grouped into the following three groups such that these groups had the same average body weight: Group 1, 0.5% carboxy-methyl-cellulose (CMC) sodium-administered group (Comparative Example 4); Group 2, ACNQ (100 μg/kg)-administered group (Example 7); and Group 3, PCA-non-induced group (Comparative Example 5). Groups 1 and 2 each included 8 mice, and Group 3 included 4 mice. Group 1 (CMC sodium-administered group) served as a control group with respect to Group 2 (ACNQ-administered group).
To each of the ICR mice of Groups 1 and 2, an anti-DNP-IgE antibody (100 ng/body) was intradermally administered through an ear auricle. Instead of the anti-DNP-IgE antibody, physiological saline was administered in a similar manner to each of the ICR mice of Group 3. […]
Subsequently, one hour after administration of each test substance, DNP-bound BSA (0.25 mg/body) serving as an antigen and Evans Blue were intravenously administered to each of the ICR mice of Groups 1 to 3, to thereby induce PCA. […] The absorbance of each extract at 620 nm was determined, to thereby calculate the Evans Blue level leaked to the ear auricle.

[3] = test system: basophil-like cells (RBL-2H3); conditions: Non-Patent Document 2; cited from earlier work
[4] = Rattus norvegicus, RBL-2H3, 0.5 h, RBL-2H3, 30 minutes incubation with test substance, DNP-BSA stimulation
[5] = Rattus norvegicus, RBL-2H3, 0.5 h, RBL-2H3, same IC50 expressed in μg/mL
[6] = Rattus norvegicus, RBL-2H3, RBL-2H3, same IC50 expressed in μg/mL
[7] = RBL-2H3, 30 minutes incubation with test substance, DNP-BSA stimulation
[8] = RBL-2H3, same IC50 expressed in μg/mL

Compound	IC50 [1, 4]	IC50 [1, 5]	IC50 [1, 6]	also measured
Oc1cc(O)c2ccccc2c1 [1,3-Naphthalenediol, 1,3-naphthalenediol, reference compound]				IC50 ([1]; Rattus norvegicus, RBL-2H3, 0.5 h): > 100 µM and > 16 µg/mL
NC1=C(C(=O)O)C(=O)c2ccccc2C1=O [ACNQ, 2-amino-3-carboxy-1,4-naphthoquinone]	0.25 µM	0.0545 mg/L	0.0545 mg/L	percent β-hexosaminidase release, relative to that of sample containing no test substance (0 μM) ([1]; ACNQ concentration ≧0.4 μM (FIG. 1)): about 20%; Evans Blue level leaked to the ear auricle [2]: significantly lowered
O=C1C=CC(=O)c2ccccc21 [1,4-Naphthoquione, 1,4-naphthoquinone]	~30 µM	4.7 mg/L	4.7 mg/L	
COc1ccc(C=CC(=O)Nc2ccccc2C(=O)O)cc1OC [tranilast, N-(3,4-dimethoxycinnamoyl)anthranilic acid]				IC50 [3]: 492 µM; IC50 to basophil-like cells (RBL-2H3) [3]: 161 mg/L (≈ 492 µM)
CC1=CC(=O)c2ccccc2C1=O [Vitamin K3, 2-methyl-1,4-naphthoquinone]	~50 µM	11.5 mg/L	11.5 mg/L	
Cc1cc(N)c2ccccc2c1O [Vitamin K5, 4-amino-2-methyl-1-naphthol]	~30 µM	6.1 mg/L	6.1 mg/L	
O=C(O)c1cc(O)c2ccccc2c1O [DHNA, 1,4-dihydroxy-2-naphthoic acid]	~50 µM	8.2 mg/L	8.2 mg/L	percent β-hexosaminidase release, relative to that of sample containing no test substance (0 μM) ([1]; DHNA concentration ≧60 μM (FIG. 2)): about 20%
menaquinone [Vitamin K2, reference compound]				IC50 [1, 7]: > 100 µM; 50% β-hexosaminidase release inhibitory concentration (IC50) [1, 8]: (>44 μg/mL)
NC1=C(Cl)C(=O)c2ccccc2C1=O [2-Amino-3-chloro-1,4-naphthoquinone, 2-amino-3-chloro-1,4-naphthoquinone]	6.8 µM	1.4 mg/L	1.4 mg/L	
CN1CCC(=C2c3ccccc3CC(=O)c3sccc32)CC1 [ketotifen fumarate, 4-(1-methyl-4-piperidylidene-4H-benzo[4,5]-cyclohepta[1,2-b]-thiophen-10(9H)-one hydrogen fumarate]				IC50 [3]: 214 µM; IC50 to basophil-like cells (RBL-2H3) [3]: 91 mg/L
CC1=C(C/C=C(\C)CCC[C@H](C)CCC[C@H](C)CCCC(C)C)C(=O)c2ccccc2C1=O [Vitamin K1, phylloquione, reference compound]				IC50 [1, 7]: > 100 µM; 50% β-hexosaminidase release inhibitory concentration (IC50) [1, 8]: (>45.1 μg/mL)
